{
  "source": "patent US11498943B2",
  "about": "“Amyloid inhibitory peptides” (TECHNISCHE UNIVERSITÄT MÜNCHEN, priority 2018, dated 2022)",
  "key": {"Aβ40 [1]": {"target": "T1, Aβ40 (Homo sapiens, UniProt P05067)", "T1 construct": "Aβ40 (TFA salt) was synthesized by Fmoc-based solid phase synthesis (SPPS); made in house; host or cells: chemical synthesis (Fmoc SPPS on Tentagel R PHB resin)", "T1 sequence (P05067 672-711)": "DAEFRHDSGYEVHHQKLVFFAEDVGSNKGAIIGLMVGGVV", "experiment": "Fluorescence spectroscopic titration of Dac-Aβ40", "assay_type": "binding", "details": "Dac-Aβ40 10 nM, pH 7.4", "description": "(§1) Fluorescence Spectroscopic Titration Studies\n(§2) A JASCO FP-6500 fluorescence spectrophotometer was used for the fluorescence spectroscopic titrations, which were performed by using previously described experimental protocols. […] App. […] Briefly, freshly made stock solutions of peptides and fluorescently labeled analogs in HFIP were used. Measurements were performed in 10 mM sodium phosphate buffer, pH 7.4 ([…]) at room temperature within 2-5 min following solution preparation. […] App. Kds were estimated using 1/1 binding models as previously described. […] KdDs are means (+SD) from three binding curves."}, "IAPP [2]": {"target": "T2, IAPP (Homo sapiens, UniProt P10997)", "T2 sequence (P10997 34-70 limits assumed)": "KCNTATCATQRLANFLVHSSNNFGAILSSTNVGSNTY", "experiment": "Fluorescence spectroscopic titration of Fluos-IAPP", "assay_type": "binding", "parameters": "IAPP was synthesized by SPPS and the Fmoc-strategy on RINK resin, subjected to air oxidation and purified by RP-HPLC; made in house; host or cells: chemical synthesis (Fmoc SPPS on RINK resin, air oxidation)", "details": "Fluos-IAPP 5 nM, pH 7.4", "description": "as §1, §2"}, "IAPP [3]": {"target": "T2, IAPP", "experiment": "MTT reduction assay: IC50 of inhibitory effect on cell-damaging amyloid self-assembly of IAPP (RIN5fm cells)", "description": "(§3) Assessment of Cell Damage by MTT Reduction Assay\n(§4) Both cell lines were cultured and plated in 96-well plates as described. […] Following incubation with the cells for ˜20 h (37° C., humidified atmosphere with 5% CO2), the MTT reduction assay was used to assess cell damage/metabolic activity as previously described."}, "Aβ40 [4]": {"target": "T1, Aβ40", "experiment": "MTT reduction assay: IC50 of inhibitory effect on cell-damaging amyloid self-assembly of Aβ40 (PC12 cells)", "assay_type": "cell-based", "description": "as §3, §4"}, "[5]": {"experiment": "Peptide stability in human plasma (in vitro)", "assay_type": "in vitro ADME", "details": "human blood plasma, 200 μM peptide, 37° C.", "description": "Peptide Stability in Human Plasma (In Vitro)\nPeptides were dissolved in human blood plasma (obtained from voluntary healthy donors) at a concentration of 200 μM and incubated at 37° C. for various time intervals. Following quenching (1/1) with aqueous trichloroacetic acid (10%), solutions were incubated on ice for 10 min, subjected to centrifugation to precipitate plasma proteins (20200 g; 4 min), and the supernatants were mixed (1/2) with a solution consisting of 80% HPLC buffer B and 20% HPLC buffer A (see below). To quantify intact peptide at different time points, solutions containing the supernatants were analyzed by RP-HPLC (detection at 214 nm) by using a Nucleosil 100 C18 column (Grace) (length 33 mm length, ID 8 mm, 7 μm particle size) with a flow rate of 2.0 ml/min and eluting buffers A, 0.058% (v/v) TFA in water, and B, 0.05% (v/v) TFA in 90% (v/v) CH3CN in water. The elution gradient was 10-90% B in A over 8 min; this step was followed by a 90-10% B in A over 3 min step to establish starting conditions. HPLC fractions were collected, lyophilized, and analyzed by MALDI-TOF-MS using a Bruker Daltonik MALDI-TOF MS instrument."}, "[6]": {"target": "recombinant human neprilysin (NEP) (Homo sapiens, UniProt P08473)", "sequence (P08473 whole entry)": "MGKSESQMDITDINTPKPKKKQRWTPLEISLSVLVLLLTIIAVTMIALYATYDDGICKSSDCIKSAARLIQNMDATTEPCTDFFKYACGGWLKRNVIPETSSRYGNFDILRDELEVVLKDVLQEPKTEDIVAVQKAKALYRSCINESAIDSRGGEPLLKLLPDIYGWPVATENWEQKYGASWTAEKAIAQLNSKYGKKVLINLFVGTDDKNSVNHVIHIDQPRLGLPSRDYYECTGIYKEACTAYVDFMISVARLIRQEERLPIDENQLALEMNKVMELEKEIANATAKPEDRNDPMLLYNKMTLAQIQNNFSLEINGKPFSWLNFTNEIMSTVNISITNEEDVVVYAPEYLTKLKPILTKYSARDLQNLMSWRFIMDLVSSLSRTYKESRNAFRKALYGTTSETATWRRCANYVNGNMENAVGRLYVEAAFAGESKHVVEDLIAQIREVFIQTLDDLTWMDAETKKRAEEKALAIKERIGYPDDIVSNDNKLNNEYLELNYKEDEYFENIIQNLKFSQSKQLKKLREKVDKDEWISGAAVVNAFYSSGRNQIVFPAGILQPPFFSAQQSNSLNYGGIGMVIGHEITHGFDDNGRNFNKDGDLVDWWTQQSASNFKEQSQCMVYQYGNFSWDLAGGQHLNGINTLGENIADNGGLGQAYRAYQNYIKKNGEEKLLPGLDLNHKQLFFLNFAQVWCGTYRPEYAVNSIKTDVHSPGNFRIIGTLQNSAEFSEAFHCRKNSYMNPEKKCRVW", "details": "peptide 100 μM, NEP 500 ng/ml, pH 6.5, 37° C.", "excerpt": "Peptide Stability Toward Degradation by Human Neprilysin (In Vitro)\nAt indicated time points aliquots were quenched (1/1) with aqueous trichloroacetic acid (10%) and solutions were subjected to HPLC analysis and HPLC fractions were collected and analyzed by MALDI-TOF-MS as described under “Peptide stability in human plasma” (above)."}, "hCMEC/D3 cells": {"system": "hCMEC/D3 cells", "experiment": "Human BBB Transwell permeability assay (in vitro)", "details": "hCMEC monolayer on Transwell; peptides 10 μM, Lucifer yellow 20 μM; mean (±SEM)", "quoted_text": "Human BBB Transwell Permeability Assay (In Vitro)\nHuman cerebral microvascular endothelial (hCMEC/D3) cells (Merck) were cultured in collagen type I-coated dishes in EndoGro-MV complete culture media kit supplemented with 1 ng/mL fibroblast growth factor-2 (FGF-2) (all reagents from Merck) (at 37° C. and 5% CO2). […] The Transwell permeability assay was then performed based on a previously established assay using 24-well plates (Sigma-Aldrich) containing 6.5 mm Transwell inserts (0.4 μm pore polycarbonate membrane (Corning)) as follows:\nhCMEC/D3 cells were grown in endothelial cell medium (ECM), containing EndoGro-MV complete media, 10% fetal bovine serum (FBS), 1% penicillin-streptamycine (P/S), and 1 ng/mL FGF-2 on the membranes of the Transwell inserts (2×10^5 cells/insert) (37° C. and 5% CO2) until full confluency was reached (normally after 5-7 days of culture). Confluency and BBB-type tightness was verified by TEER analysis; TEER values of 60-80 Ωcm^2 were obtained. The upper and lower chambers then were reconstituted with 200 μl and 800 μl, respectively, of ECM containing 2% FBS. The N-terminal fluorescein-labeled 12 amino acid-long peptide [sequence]-amide (Fluos-Trfb) known to readily cross the BBB via binding to the transferrin receptor, was used as a positive control for BBB permeability in this model.\nAs a reference point for the maximum fluorescence intensity, 100 μl of medium from the upper chamber at 0 h was also transferred and quantified. […] Lucifer yellow in the lower chamber was quantified by measuring the fluorescence at 530 nm (excitation at 485 nm). Relative permeability (FIG. 3f) was calculated by dividing the fluorescence value of the aliquot from the lower chamber at each time point by the fluorescence value of the 0 h-lower chamber aliquot.\nReported Papp values are means (±SEM) from at least 3 transport assays (each of them performed in triplicates)."}, "[7]": {"details": "Aβ40 500 nM, 72 h-aged solutions, PC12 cells, MTT reduction, means (±SD) from 3-4 titration assays, read-out: IC50 (±SD) (nM) Aβ40 inhibition"}, "[8]": {"details": "RP-HPLC and MALDI-TOF-MS, read-out: Half-life time in human plasma"}},
  "note": "Like-named read-outs stand apart in the source and are kept apart here. Where a SMILES comes first, the peptide text is derived from it. Bridges are numbered along the chain shown (N, C = ends). [ ]: non-standard residue; d: D form. The star is where a group is joined. 5FAM = O=C1OC2(c3ccc(O)cc3Oc3cc(O)ccc32)c2ccc(C(=O)*)cc21; NMeI = CC[C@H](C)[C@H](NC)C(=O)O; Sar = CNCC(=O)O",
  "data": [
    {"compound": "CC[C@H](C)[C@H]1C(=O)NCC(=O)NCC(=O)N[C@@H](C(N)=O)CSSC[C@@H](NC(=O)c2ccc3c(c2)C(=O)OC32c3ccc(O)cc3Oc3cc(O)ccc32)C(=O)NCC(=O)N[C@H](Cc2ccccc2)C(=O)N[C@H](CC(C)C)C(=O)NCC(=O)NCC(=O)N[C@H](CCCNC(=N)N)C(=O)N[C@H](CCCNC(=N)N)C(=O)N[C@H](CCCNC(=N)N)C(=O)NCC(=O)N[C@H](Cc2ccccc2)C(=O)N(C)CC(=O)NCC(=O)N1C", "note": "[Fluos-2e] (5FAM-[dC]G[dF][dL]GG[dR][dR][dR]G[dF][Sar]G[NMeI]GG[dC]-NH2; disulfide 1-17; N-terminus assumed)", "values": [
      {"measurement": "Papp A→B", "value": 14.6, "unit": "×10⁻⁶ cm/s"}
    ]},
    {"compound": "CSCC[C@H](NC(=O)[C@@H]1CCCN1C(=O)[C@@H]1CCCN1C(=O)[C@H](CCCNC(=N)N)NC(=O)[C@H](Cc1c[nH]cn1)NC(=O)[C@@H](NC(=O)c1ccc2c(c1)C(=O)OC21c2ccc(O)cc2Oc2cc(O)ccc21)[C@@H](C)O)C(=O)N[C@@H](Cc1c[nH]c2ccccc12)C(=O)N[C@@H](CO)C(=O)N1CCC[C@H]1C(=O)N[C@H](C(=O)N[C@@H](Cc1c[nH]c2ccccc12)C(=O)N1CCC[C@H]1C(N)=O)C(C)C", "note": "[Fluos-Trfb, reference compound] (5FAM-THRPPMWSPVWP-NH2; N-terminus assumed)", "values": [
      {"measurement": "Papp A→B", "value": 20.8, "unit": "×10⁻⁶ cm/s"}
    ]},
    {"compound": "CC[C@H](C)[C@H]1C(=O)N[C@@H](CC(C)C)C(=O)N[C@@H](CO)C(=O)N[C@H](C(N)=O)CSSC[C@H](N)C(=O)N[C@@H](C)C(=O)N[C@@H]([C@@H](C)O)C(=O)N[C@@H](CCC(N)=O)C(=O)N[C@@H](CCCNC(=N)N)C(=O)N[C@@H](CC(C)C)C(=O)N[C@@H](C)C(=O)N[C@@H](CC(N)=O)C(=O)N[C@@H](Cc2ccccc2)C(=O)N[C@@H](CC(C)C)C(=O)N[C@@H](C(C)C)C(=O)N[C@@H](Cc2c[nH]cn2)C(=O)N[C@@H](CCCNC(=N)N)C(=O)N[C@@H](CCCNC(=N)N)C(=O)N[C@@H](CCCNC(=N)N)C(=O)N[C@@H](CC(N)=O)C(=O)N[C@@H](Cc2ccccc2)C(=O)N(C)CC(=O)N[C@@H](C)C(=O)N1C", "note": "[Peptide 1a] (H-CATQRLANFLVHRRRNF[Sar]A[NMeI]LSC-NH2; disulfide 1-23; N-terminus assumed)", "values": [
      {"measurement": "app. Kd of interaction with N-terminal fluorescently labeled Aβ40", "setting": "Aβ40 [1]", "value": "mid-nanomolar"},
      {"measurement": "app. Kd of interaction with N-terminal fluorescently labeled IAPP", "setting": "IAPP [2]", "value": "mid-nanomolar"}
    ]},
    {"compound": "CC[C@H](C)[C@H]1C(=O)N[C@@H](CC(C)C)C(=O)N[C@@H](CO)C(=O)N[C@H](C(N)=O)CSSC[C@H](N)C(=O)N[C@@H](CC(N)=O)C(=O)N[C@@H](Cc2ccccc2)C(=O)N[C@@H](CC(C)C)C(=O)N[C@@H](C(C)C)C(=O)N[C@@H](Cc2c[nH]cn2)C(=O)N[C@@H](CCCNC(=N)N)C(=O)N[C@@H](CCCNC(=N)N)C(=O)N[C@@H](CCCNC(=N)N)C(=O)N[C@@H](CC(N)=O)C(=O)N[C@@H](Cc2ccccc2)C(=O)N(C)CC(=O)N[C@@H](C)C(=O)N1C", "note": "[Peptide 2a] (H-CNFLVHRRRNF[Sar]A[NMeI]LSC-NH2; disulfide 1-17; N-terminus assumed)", "values": [
      {"measurement": "app. Kd of interaction with N-terminal fluorescently labeled Aβ40", "setting": "Aβ40 [1]", "value": "mid-nanomolar"},
      {"measurement": "app. Kd of interaction with N-terminal fluorescently labeled IAPP", "setting": "IAPP [2]", "value": "mid-nanomolar"},
      {"measurement": "Potency against IAPP cytotoxic self-assembly relative to 1a", "setting": "IAPP [3]; ratio of IC50s", "value": "~3", "unit": "fold"}
    ]},
    {"compound": "CC[C@H](C)[C@H]1C(=O)NCC(=O)NCC(=O)N[C@H](C(N)=O)CSSC[C@H](N)C(=O)NCC(=O)N[C@@H](Cc2ccccc2)C(=O)N[C@@H](CC(C)C)C(=O)NCC(=O)NCC(=O)N[C@@H](CCCNC(=N)N)C(=O)N[C@@H](CCCNC(=N)N)C(=O)N[C@@H](CCCNC(=N)N)C(=O)NCC(=O)N[C@@H](Cc2ccccc2)C(=O)N(C)CC(=O)NCC(=O)N1C", "note": "[Peptide 2b] (H-CGFLGGRRRGF[Sar]G[NMeI]GGC-NH2; disulfide 1-17)", "values": [
      {"measurement": "app. Kd of interaction with N-terminal fluorescently labeled Aβ40", "setting": "Aβ40 [1]", "value": "mid-nanomolar"},
      {"measurement": "app. Kd of interaction with N-terminal fluorescently labeled IAPP", "setting": "IAPP [2]", "value": "mid-nanomolar"},
      {"measurement": "IC50", "setting": "Aβ40 [4]", "value": 654, "unit": "nM"},
      {"measurement": "half-life at 200 μM", "setting": "[5]; read-out: t1/2 in human plasma", "value": "~0.75", "unit": "h"},
      {"measurement": "IC50", "setting": "IAPP [3]", "value": 426, "unit": "nM"}
    ]},
    {"compound": "CC[C@H](C)[C@H]1C(=O)NCC(=O)NCC(=O)N[C@H](C(N)=O)CSSC[C@H](N)C(=O)NCC(=O)N[C@@H](Cc2ccccc2)C(=O)N[C@@H](CC(C)C)C(=O)NCC(=O)NCC(=O)N[C@H](CCCNC(=N)N)C(=O)N[C@H](CCCNC(=N)N)C(=O)N[C@H](CCCNC(=N)N)C(=O)NCC(=O)N[C@@H](Cc2ccccc2)C(=O)N(C)CC(=O)NCC(=O)N1C", "note": "[Peptide 2c] (H-CGFLGG[dR][dR][dR]GF[Sar]G[NMeI]GGC-NH2; disulfide 1-17)", "values": [
      {"measurement": "IC50", "setting": "Aβ40 [4]; [7]", "value": 204, "unit": "nM"},
      {"measurement": "half-life at 200 μM", "setting": "[5]; [8]", "value": "1 to 2", "unit": "h"}
    ]},
    {"compound": "CC[C@H](C)[C@H]1C(=O)NCC(=O)NCC(=O)N[C@H](C(N)=O)CSSC[C@H](N)C(=O)NCC(=O)N[C@H](Cc2ccccc2)C(=O)N[C@H](CC(C)C)C(=O)NCC(=O)NCC(=O)N[C@H](CCCNC(=N)N)C(=O)N[C@H](CCCNC(=N)N)C(=O)N[C@H](CCCNC(=N)N)C(=O)NCC(=O)N[C@H](Cc2ccccc2)C(=O)N(C)CC(=O)NCC(=O)N1C", "note": "[Peptide 2d] (H-CG[dF][dL]GG[dR][dR][dR]G[dF][Sar]G[NMeI]GGC-NH2; disulfide 1-17)", "values": [
      {"measurement": "IC50", "setting": "Aβ40 [4]; [7]", "value": 703, "unit": "nM"},
      {"measurement": "half-life at 200 μM", "setting": "[5]; [8]", "value": "1 to 2", "unit": "h"}
    ]},
    {"compound": "CC[C@H](C)[C@H]1C(=O)NCC(=O)NCC(=O)N[C@@H](C(N)=O)CSSC[C@@H](N)C(=O)NCC(=O)N[C@H](Cc2ccccc2)C(=O)N[C@H](CC(C)C)C(=O)NCC(=O)NCC(=O)N[C@H](CCCNC(=N)N)C(=O)N[C@H](CCCNC(=N)N)C(=O)N[C@H](CCCNC(=N)N)C(=O)NCC(=O)N[C@H](Cc2ccccc2)C(=O)N(C)CC(=O)NCC(=O)N1C", "note": "[Peptide 2e] (H-[dC]G[dF][dL]GG[dR][dR][dR]G[dF][Sar]G[NMeI]GG[dC]-NH2; disulfide 1-17)", "values": [
      {"measurement": "Resistance to degradation by human neprilysin", "setting": "[6]", "value": "fully resistant to degradation"},
      {"measurement": "IC50", "setting": "Aβ40 [4]", "value": 542, "unit": "nM"},
      {"measurement": "half-life at 200 μM", "setting": "[5]; [8]", "value": "> 11", "unit": "h"}
    ]},
    {"compound": "Lucifer yellow", "values": [
      {"measurement": "Apparent permeability (Papp) at 2 h", "setting": "hCMEC/D3 cells", "value": "5.3×10^−6 (±2.7) cm/s"}
    ]}
  ]
}
